Data taken from DBAASP.
Values after ≈ are worked out from the molar mass of the structure shown. Values belong to the compound of their own block, whether it stands above or below them.

Tests used:
Assay in all cases: ≥ marks a high value that may be exact or a test limit, other limits are often not marked, values filed in µg/mL are converted to µM
Escherichia coli BL21 = test system: Escherichia coli BL21
[1] = test system: Pseudomonas aeruginosa PAO1
[2] = test system: Streptococcus pyogenes M1T1 5448
[3] = test system: Staphylococcus aureus USA 300
[4] = test system: Candida albicans NCYC 1467
[5] = test system: Escherichia coli NCTC 10418
[6] = test system: Pseudomonas aeruginosa ATCC 27853
[7] = test system: Staphylococcus aureus ATCC 43300
[8] = test system: Staphylococcus aureus NCTC 10788
[9] = test system: Staphylococcus aureus NCTC 12493
Bacillus anthracis = test system: Bacillus anthracis
Bacillus cereus = test system: Bacillus cereus
Escherichia coli = test system: Escherichia coli
Staphylococcus aureus = test system: Staphylococcus aureus
Escherichia coli K-12 = test system: Escherichia coli K-12
Klebsiella pneumoniae = test system: Klebsiella pneumoniae
[10] = test system: Staphylococcus aureus NCTC 8325-4

- MIC (Escherichia coli BL21): 16 µM (≈ 48.1 µg/mL)
- MIC [1]: 128 µM (≈ 385 µg/mL)
- MIC [2]: 4 µM (≈ 12 µg/mL)
Structure (SMILES): CC[C@H](C)[C@H](NC(=O)[C@H](Cc1ccccc1)NC(=O)[C@H](C)NC(=O)[C@H](CCCCN)NC(=O)[C@H](CCCCN)NC(=O)CNC(=O)[C@H](CCCN=C(N)N)NC(=O)[C@H](CCCCN)NC(=O)[C@H](CCCN=C(N)N)NC(=O)[C@H](CC(C)C)NC(=O)[C@H](Cc1ccc(O)cc1)NC(=O)[C@H](CCC(=O)O)NC(=O)[C@H](CCCCN)NC(=O)[C@H](CC(C)C)NC(=O)[C@H](CCC(=O)O)NC(=O)[C@H](CC(C)C)NC(=O)[C@@H](NC(=O)[C@H](CC(C)C)NC(=O)[C@H](CCCCN)NC(=O)[C@H](CCC(N)=O)NC(=O)[C@H](CCCN=C(N)N)NC(=O)CNC(=O)[C@H](C)N)[C@@H](C)O)C(=O)N[C@@H](C)C(=O)N[C@@H](Cc1c[nH]c2ccccc12)C(=O)O [AGRQKLTLELKEYLRKRGKKAFIAW]

- MIC (Escherichia coli BL21): 8 µM (≈ 24 µg/mL)
- MIC [1]: 16 µM (≈ 48 µg/mL)
- MIC [2]: 8 µM (≈ 24 µg/mL)
Structure (SMILES): CC[C@H](C)[C@H](NC(=O)[C@H](CCC(=O)O)NC(=O)[C@H](CCCN=C(N)N)NC(=O)[C@H](CCCN=C(N)N)NC(=O)[C@H](CC(C)C)NC(=O)[C@H](Cc1ccc(O)cc1)NC(=O)[C@H](C)NC(=O)[C@H](CCCCN)NC(=O)[C@@H](NC(=O)[C@@H](NC(=O)[C@H](CCC(N)=O)NC(=O)[C@H](CCCN=C(N)N)NC(=O)CNC(=O)[C@H](C)N)[C@@H](C)O)[C@@H](C)CC)C(=O)N[C@@H](CCCN=C(N)N)C(=O)N[C@@H](CCCCN)C(=O)N[C@@H](CCCN=C(N)N)C(=O)NCC(=O)N[C@@H](CCCN=C(N)N)C(=O)N[C@@H](CCCCN)C(=O)N[C@@H](C)C(=O)N[C@H](C(=O)N[C@H](C(=O)N[C@@H](C)C(=O)N[C@@H](Cc1c[nH]c2ccccc12)C(=O)O)[C@@H](C)CC)C(C)C [AGRQTIKAYLRREIRKRGRKAVIAW]

- MIC (Escherichia coli BL21): 2 µM (≈ 6.17 µg/mL)
- MIC [1]: 16 µM (≈ 49.3 µg/mL)
- MIC [3]: ≥ 128 µM
- MIC [2]: 4 µM (≈ 12.3 µg/mL)
Structure (SMILES): CC[C@H](C)[C@H](NC(=O)[C@H](Cc1c[nH]c2ccccc12)NC(=O)[C@H](CCC(N)=O)NC(=O)[C@H](CCCN=C(N)N)NC(=O)CNC(=O)[C@H](C)N)C(=O)N[C@@H](C)C(=O)N[C@@H](CCCCN)C(=O)N[C@@H](Cc1ccc(O)cc1)C(=O)N[C@@H](CC(C)C)C(=O)N[C@@H](CCCN=C(N)N)C(=O)N[C@@H](CCCN=C(N)N)C(=O)N[C@@H](CCC(=O)O)C(=O)N[C@H](C(=O)N[C@@H](CCCN=C(N)N)C(=O)N[C@@H](CCCCN)C(=O)N[C@@H](CCCN=C(N)N)C(=O)NCC(=O)N[C@@H](CCCN=C(N)N)C(=O)N[C@@H](CCCCN)C(=O)N[C@@H](C)C(=O)N[C@H](C(=O)N[C@H](C(=O)N[C@@H](C)C(=O)N[C@@H](Cc1c[nH]c2ccccc12)C(=O)O)[C@@H](C)CC)C(C)C)[C@@H](C)CC [AGRQWIAKYLRREIRKRGRKAVIAW]

- MIC (Escherichia coli BL21): 0.25 µM (≈ 0.764 µg/mL)
- MIC [1]: 8 µM (≈ 24.4 µg/mL)
- MIC [2]: 0.5 µM (≈ 1.53 µg/mL)
Structure (SMILES): CC[C@H](C)[C@H](NC(=O)[C@H](CCCN=C(N)N)NC(=O)CNC(=O)[C@@H](NC(=O)[C@H](CCCCN)NC(=O)[C@H](CCCN=C(N)N)NC(=O)[C@@H](NC(=O)[C@H](Cc1ccc(O)cc1)NC(=O)[C@H](CCCN=C(N)N)NC(=O)[C@H](CCCN=C(N)N)NC(=O)[C@H](CC(C)C)NC(=O)[C@H](CCC(=O)O)NC(=O)[C@H](CCCCN)NC(=O)[C@H](C)NC(=O)[C@@H](NC(=O)[C@H](CCCN=C(N)N)NC(=O)[C@H](CC(N)=O)NC(=O)[C@@H](NC(=O)[C@H](CCCCN)NC(=O)[C@H](C)N)[C@@H](C)O)[C@@H](C)CC)[C@@H](C)CC)C(C)C)C(=O)N[C@@H](C)C(=O)N[C@@H](CCCN=C(N)N)C(=O)N[C@@H](CCCCN)C(=O)N[C@@H](C)C(=O)N[C@@H](Cc1c[nH]c2ccccc12)C(=O)O [AKTNRIAKELRRYIRKVGRIARKAW]

- MIC [4]: 5.42 µM (≈ 16 µg/mL)
- MIC [5]: 2.71 µM (≈ 8 µg/mL)
- MIC [6]: 5.42 µM (≈ 16 µg/mL)
- MIC [7]: 2.71 µM (≈ 8 µg/mL)
- MIC [8]: 2.71 µM (≈ 8 µg/mL)
- MIC [9]: 5.42 µM (≈ 16 µg/mL)
Structure (SMILES): CSCC[C@H](NC(=O)[C@H](CC(=O)O)NC(=O)[C@@H](NC(=O)[C@@H](NC(=O)[C@H](C)NC(=O)[C@H](CC(N)=O)NC(=O)[C@H](CC(C)C)NC(=O)[C@@H](NC(=O)[C@H](C)NC(=O)[C@H](CCCCN)NC(=O)CNC(=O)[C@H](C)NC(=O)[C@H](C)NC(=O)[C@H](CCCCN)NC(=O)CNC(=O)[C@@H](NC(=O)[C@H](CC(N)=O)NC(=O)[C@H](CCCCN)NC(=O)[C@H](CC(C)C)NC(=O)[C@H](CC(C)C)NC(=O)[C@@H](NC(=O)[C@H](CCCCN)NC(=O)[C@H](Cc1c[nH]c2ccccc12)NC(=O)[C@H](CC(C)C)NC(=O)[C@H](C)N)[C@@H](C)O)C(C)C)C(C)C)C(C)C)[C@@H](C)O)C(=O)N[C@H](C(=O)N[C@@H](CC(N)=O)C(=O)N[C@@H](CCC(N)=O)C(N)=O)C(C)C [ALWKTLLKNVGKAAGKAVLNAVTDMVNQ]

Structure (SMILES): CC(C)C[C@H](NC(=O)[C@H](CO)NC(=O)[C@H](CC(C)C)NC(=O)[C@H](Cc1ccccc1)NC(=O)[C@@H](NC(=O)[C@H](CO)NC(=O)[C@H](CO)NC(=O)[C@H](CCCN=C(N)N)NC(=O)[C@H](Cc1ccccc1)NC(=O)[C@@H](NC(=O)[C@@H](NC(=O)[C@@H]1CCCN1C(=O)[C@H](CO)NC(=O)[C@H](C)N)[C@@H](C)O)C(C)C)C(C)C)C(=O)N[C@@H](Cc1ccccc1)C(=O)N[C@H](C(=O)N[C@H](C(=O)N[C@@H](C)C(=O)N[C@@H](CCCCN)C(=O)N[C@@H](CCCCN)C(=O)O)C(C)C)C(C)C [ASPTVFRSSVFLSLFVVAKK]
- MIC (Bacillus anthracis): ≥ 117 µM
- MIC (Bacillus cereus): ≥ 117 µM
- MIC (Escherichia coli): > 117 µM
- MIC (Staphylococcus aureus): > 117 µM

Structure (SMILES): CC(C)C[C@H](NC(=O)CNC(=O)[C@H](Cc1ccccc1)NC(=O)[C@H](CC(C)C)NC(=O)[C@@H](N)Cc1ccccc1)C(=O)N[C@@H](C)C(=O)N[C@@H](CO)C(=O)N[C@@H](CCCCN)C(=O)N[C@H](C(=O)N[C@@H](Cc1ccccc1)C(=O)N1CCC[C@H]1C(=O)N[C@@H](C)C(=O)N[C@H](C(=O)N[C@@H](Cc1ccc(O)cc1)C(=O)N[C@@H](CS)C(=O)N[C@@H](CCCCN)C(=O)N[C@H](C(=O)N[C@H](C(=O)N[C@@H](CCCN=C(N)N)C(=O)N[C@@H](CCCCN)C(=O)O)[C@@H](C)O)C(C)C)C(C)C)C(C)C [FLFGLASKVFPAVYCKVTRK]
- MIC (Bacillus anthracis): ≥ 56.3 µM
- MIC (Bacillus cereus): ≥ 113 µM
- MIC (Escherichia coli): 28.1 µM (≈ 64 µg/mL)
- MIC (Staphylococcus aureus): 113 µM (≈ 256 µg/mL)

- MIC (Escherichia coli K-12): 12.5 µM (≈ 20 µg/mL)
- MIC [3]: ≥ 50 µM
Structure (SMILES): CC[C@H](C)[C@H](NC(=O)[C@H](Cc1cnc[nH]1)NC(=O)[C@H](CCCCN)NC(=O)[C@@H](NC(=O)[C@@H](NC(=O)[C@H](CC(=O)O)NC(=O)[C@H](Cc1ccccc1)NC(=O)[C@H](Cc1c[nH]c2ccccc12)NC(=O)CN)C(C)C)C(C)C)C(=O)N[C@@H](C)C(=O)N[C@@H](CCCCN)C(=O)N[C@@H](CCCNC(=N)N)C(=O)N[C@@H](Cc1ccccc1)C(N)=O [GWFDVVKHIAKRF]

- MIC (Escherichia coli K-12): 15.6 µM (≈ 22.9 µg/mL)
- MIC (Klebsiella pneumoniae): > 500 µM
- MIC [1]: 15.6 µM (≈ 22.9 µg/mL)
- MIC [10]: ≥ 250 µM
Structure (SMILES): CC[C@H](C)[C@H](N)C(=O)N[C@@H](CCCCN)C(=O)N[C@@H](CCCCN)C(=O)N[C@H](C(=O)N[C@H](C(=O)N[C@@H](CCCCN)C(=O)N[C@@H](CCCCN)C(=O)N[C@H](C(=O)N[C@H](C(=O)N[C@@H](CCCCN)C(=O)N[C@@H](CCCCN)C(=O)N[C@H](C(N)=O)[C@@H](C)CC)[C@@H](C)CC)[C@@H](C)CC)[C@@H](C)CC)[C@@H](C)CC [IKKIIKKIIKKI]

- MIC [4]: ≥ 237 µM
- MIC [5]: ≥ 237 µM
- MIC [6]: > 237 µM
- MIC [8]: ≥ 237 µM
Structure (SMILES): CC(C)C[C@H](NC(=O)[C@H](CCCN=C(N)N)NC(=O)[C@H](CC(N)=O)NC(=O)[C@H](CC(C)C)NC(=O)[C@@H](N)CCCCN)C(=O)N[C@@H](CCCCN)C(=O)N[C@@H](CCC(=O)O)C(=O)N[C@@H](CCCCN)C(=O)N[C@@H](CC(N)=O)C(=O)N[C@@H](CCCCN)C(=O)N[C@@H](C)C(=O)N[C@@H](CCCCN)C(=O)N[C@@H](CC(N)=O)C(=O)N[C@@H](CO)C(=O)N[C@@H](CCCCN)C(=O)N[C@@H](CCC(=O)O)C(=O)N[C@@H](CC(N)=O)C(=O)N[C@@H](CC(N)=O)C(=O)O [KLNRLKEKNKAKNSKENN]

- MIC (Escherichia coli BL21): 16 µM (≈ 49 µg/mL)
- MIC [1]: > 128 µM
- MIC [2]: 0.25 µM (≈ 0.766 µg/mL)
Structure (SMILES): CC[C@H](C)[C@H](NC(=O)[C@H](CCCN=C(N)N)NC(=O)[C@H](C)NC(=O)[C@H](CCCCN)NC(=O)[C@H](CCCCN)NC(=O)CNC(=O)[C@H](Cc1ccccc1)NC(=O)[C@H](CCCCN)NC(=O)[C@H](CCCN=C(N)N)NC(=O)[C@H](CC(C)C)NC(=O)[C@H](CCC(=O)O)NC(=O)[C@H](CCC(=O)O)NC(=O)[C@H](CCCCN)NC(=O)[C@H](CC(C)C)NC(=O)[C@H](Cc1ccc(O)cc1)NC(=O)[C@H](CC(C)C)NC(=O)[C@@H](NC(=O)[C@H](CC(C)C)NC(=O)[C@H](C)NC(=O)[C@H](CCC(N)=O)NC(=O)[C@H](CCCN=C(N)N)NC(=O)CNC(=O)[C@@H](N)Cc1c[nH]c2ccccc12)[C@@H](C)O)C(=O)N[C@@H](C)C(=O)N[C@@H](Cc1c[nH]c2ccccc12)C(=O)O [WGRQALTLYLKEELRKFGKKARIAW]
